The IC50 is the concentration needed to halve the response being measured. Broadly, the Ki is a dissociation constant, usually derived from enzyme kinetics or from competition with a known ligand. A word on the Kd: it is the constant that tells how readily two partners part at equilibrium.

The target of test [1] is T1, Shikimate kinase (Helicobacter pylori (strain ATCC 700392 / 26695) (Campylobacterpylori), UniProt P56073). Briefly: Inhibition of Helicobacter pylori SS1 recombinant shikimate kinase expressed in BL21 (DE3) cells by double coupled assay. The format is cell-based.
Test [2] addresses T1, Shikimate kinase. Description: Inhibition of Helicobacter pylori SS1 recombinant shikimate kinase expressed in BL21 (DE3) cells in presence of varying shikimate levels by double coupled assay. The test is classed as cell-based.
The target of test [3] is T1, Shikimate kinase. Description: Inhibition of Helicobacter pylori SS1 recombinant shikimate kinase expressed in BL21 (DE3) cells in presence of varying MgATP levels by double coupled assay. The test is classed as cell-based.
The target in test [4] is T1, Shikimate kinase. Briefly: Binding affinity to Helicobacter pylori SS1 recombinant shikimate kinase expressed in BL21 (DE3) cells by SPR assay.

T1 sequence (P56073 whole entry): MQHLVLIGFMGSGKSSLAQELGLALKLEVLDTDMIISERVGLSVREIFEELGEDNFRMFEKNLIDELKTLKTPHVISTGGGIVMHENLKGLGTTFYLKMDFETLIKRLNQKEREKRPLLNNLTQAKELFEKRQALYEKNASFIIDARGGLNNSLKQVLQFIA

In the case of `COc1cc(C=O)ccc1OCc1ccccc1COc1ccc(/C=C2/SC(=S)NC2=O)cc1OC`, in test [1], the IC50 was determined as 5.5 µM. Further, the Ki in test [1] amounted to 9.48 µM; in test [2], 10.7 µM; in test [3] it was 7.18 µM. Besides, the Kd in test [4] is 4.39 µM.
On to `O=C1NN(c2ccc(Cl)c(Cl)c2)C(=O)/C1=C\c1ccc(-c2ccc(Br)cc2C(=O)O)o1`, for which, in test [1], the IC50 was determined as 6.4 µM and the inhibition constant Ki turned out to be 2.19 µM. The Ki in test [3] was found to be 7.92 µM. Besides, the Kd in test [4] was found to be 3.74 µM.

Source of the values: ChEMBL document CHEMBL1144564, “Discovery of Helicobacter pylori shikimate kinase inhibitors: bioassay and molecular modeling” (Bioorg Med Chem, 2007).
